A short description of test [1]: Competitive Inhibition constant for Bacillus stearothermophilus glucosidase. Further details: species or system Geobacillus stearothermophilus.
The target of test [2] is T1, Lysosomal alpha-mannosidase (Homo sapiens) (UniProt O00754).
T1 sequence (whole entry): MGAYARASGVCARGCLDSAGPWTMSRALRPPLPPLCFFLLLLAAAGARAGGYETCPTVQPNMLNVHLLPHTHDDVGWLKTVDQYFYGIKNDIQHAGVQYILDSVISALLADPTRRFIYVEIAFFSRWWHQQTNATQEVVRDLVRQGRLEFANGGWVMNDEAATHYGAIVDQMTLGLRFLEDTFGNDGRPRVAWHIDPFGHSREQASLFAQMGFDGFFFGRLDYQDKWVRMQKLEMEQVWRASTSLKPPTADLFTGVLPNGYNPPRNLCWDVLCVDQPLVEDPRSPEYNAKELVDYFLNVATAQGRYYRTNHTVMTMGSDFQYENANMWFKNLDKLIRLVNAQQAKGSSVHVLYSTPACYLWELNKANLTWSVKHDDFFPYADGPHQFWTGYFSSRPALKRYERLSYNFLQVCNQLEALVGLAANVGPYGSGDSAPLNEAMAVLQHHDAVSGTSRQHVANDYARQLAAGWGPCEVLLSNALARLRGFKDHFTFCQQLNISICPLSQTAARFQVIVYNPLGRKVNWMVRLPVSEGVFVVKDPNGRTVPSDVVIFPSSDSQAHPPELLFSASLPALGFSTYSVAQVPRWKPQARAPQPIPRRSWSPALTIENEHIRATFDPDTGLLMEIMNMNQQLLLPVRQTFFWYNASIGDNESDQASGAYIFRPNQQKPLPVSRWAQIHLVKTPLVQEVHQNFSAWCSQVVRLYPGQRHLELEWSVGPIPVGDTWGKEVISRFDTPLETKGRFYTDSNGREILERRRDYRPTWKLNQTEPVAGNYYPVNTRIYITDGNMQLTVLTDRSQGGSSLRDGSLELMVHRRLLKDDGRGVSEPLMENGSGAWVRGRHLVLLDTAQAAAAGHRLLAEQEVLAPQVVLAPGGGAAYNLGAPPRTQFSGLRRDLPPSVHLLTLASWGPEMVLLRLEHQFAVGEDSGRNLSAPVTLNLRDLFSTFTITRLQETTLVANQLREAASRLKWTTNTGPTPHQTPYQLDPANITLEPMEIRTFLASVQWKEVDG
In words: Inhibition of alpha-Mannosidase. The following applies: concentration not given here.

For test [3], the species on record is Homo sapiens. In words: Inhibition of Glucosidase 2 at 12 umol/mL.

As a reminder, the Ki is the equilibrium dissociation constant of an inhibitor or competing ligand from its target. In test [1], `O=C(CCCCO)NCC1OC(CO)C(O)C(O)C1O` (stereo not drawn) came in with a Ki of 580 µM.

What is called inhibition is the percentage by which the read-out fell short of the control. In turn, `O=C(CCCO)NCC1OC(CO)C(O)C(O)C1O` (stereo not drawn) registered an inhibition in test [2] of under 1%.

In test [3], `O=C(CCO)NCC1OC(CO)C(O)C(O)C1O` (stereo not drawn) registered an inhibition of under 1%.
